Data from PMC8222276 (Communications Biology, 2021).

What was measured:
[1] = biological target: T1, AM1 receptor (CLR-RAMP2) in HUVECs (Homo sapiens, UniProt O60895+Q16602); assay: signalling bias analysis (operational model) in HUVECs; settings: HUVEC; ΔΔLog(τ/KA), reference AM and cAMP
T1 construct: HUVECs specifically express the AM1 receptor alone; host or cells: primary HUVECs
Protocol: All sample sizes were determined, and data analysed, in accordance with the guidelines described by Curtis M et al.[65]. All experiments were appropriately controlled using ‘system pathway’ agonists. If any of these pathway controls generated inappropriate responses, then the entire data set was removed from analysis. […] Data analysis for cAMP accumulation, Ca^2+i mobilisation, NO accumulation, pERK1/2 activation, and cell proliferation assays were performed in GraphPad Prism 8.4 (GraphPad Software, San Diego). Data were fitted to obtain concentration–response curves using either the three-parameter logistic equation using to obtain values of Emax and pEC50 or the operational model of agonism. Statistical differences were analysed using one-way ANOVA followed by Dunnett’s post-hoc (for comparisons amongst more than two groups) or unpaired Student’s t test with Welch’s correction (for comparison between two groups). […] Having obtained values for τ and KA these were then used to quantify signalling bias as the change in Log(τ/KA)[19],[28]. […]

[2] = system: RAMP1-HUVECs; assay: cell proliferation (72 h) of RAMP1-HUVECs; type: cell-based, human; settings: RAMP1-HUVEC
Protocol: Data are analysed using a three-parameter non-linear regression curve or the operational model of receptor agonism. g–h Signalling bias plots were calculated as ∆Log(τ/KA) (g) or ∆∆Log(τ/KA) (h) for each agonist and for each signalling pathway. […] All data represent mean ± SEM for n repeats.
Both endothelial cell lines and HCMs were seeded at a density of 2500 cells/well in a clear flat bottom 96-well plate (Corning, UK) and incubated at 37 °C in 5% CO2. After 24 h, cells were exposed to test compounds or vehicle, in complete endothelial cell growth media (HUVECs) or myocyte growth media (HCMs). Cells were incubated for a further 72 h at 37 °C in 5% CO2. After 72 h incubation, 5 μl of Cell Counting Kit–8 (CCK-8, Sigma, UK) was added to each well and cells were then incubated for another 2 h at 37 °C in 5% CO2 and in the dark[61]. The absorbance of each well was measured using a Mithras LB940 microplate reader with an excitation of 450 nm. The absorbance is directly proportional to the number of viable cells. Cell proliferation was calculated as a percentage of number of cells treated with vehicle alone.
All sample sizes were determined, and data analysed, in accordance with the guidelines described by Curtis M et al.[65]. All experiments were appropriately controlled using ‘system pathway’ agonists. If any of these pathway controls generated inappropriate responses, then the entire data set was removed from analysis.

[3] = proliferation, operational model, mean ± SEM

T1 sequence (Q16602 23-461): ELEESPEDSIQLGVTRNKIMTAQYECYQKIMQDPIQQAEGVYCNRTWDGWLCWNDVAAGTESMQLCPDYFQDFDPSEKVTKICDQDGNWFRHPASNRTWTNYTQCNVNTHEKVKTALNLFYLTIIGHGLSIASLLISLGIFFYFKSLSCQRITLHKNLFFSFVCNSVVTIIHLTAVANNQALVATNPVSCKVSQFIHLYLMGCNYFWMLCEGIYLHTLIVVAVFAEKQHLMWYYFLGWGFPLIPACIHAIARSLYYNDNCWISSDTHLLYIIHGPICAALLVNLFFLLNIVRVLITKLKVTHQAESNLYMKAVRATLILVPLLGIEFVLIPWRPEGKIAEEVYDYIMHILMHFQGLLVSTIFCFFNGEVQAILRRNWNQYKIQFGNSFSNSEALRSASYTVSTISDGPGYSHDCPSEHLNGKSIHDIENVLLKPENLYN
T1 sequence (O60895 43-175): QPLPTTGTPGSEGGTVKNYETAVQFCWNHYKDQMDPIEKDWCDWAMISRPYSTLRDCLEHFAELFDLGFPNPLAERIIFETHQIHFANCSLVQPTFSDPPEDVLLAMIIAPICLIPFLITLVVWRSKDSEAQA

`CSCC[C@H](NC(=O)[C@H](CC(C)C)NC(=O)[C@H](CCC(N)=O)NC(=O)[C@H](Cc1c[nH]c2ccccc12)NC(=O)[C@H](CC(C)C)NC(=O)[C@H](CCCNC(=N)N)NC(=O)[C@H](Cc1c[nH]cn1)NC(=O)[C@H](CO)NC(=O)[C@H](CC(C)C)NC(=O)[C@H](CC(N)=O)NC(=O)[C@H](CCC(N)=O)NC(=O)[C@@H](NC(=O)[C@H](CCC(N)=O)NC(=O)[C@@H]1CSSC[C@H](NC(=O)CNC(=O)[C@@H](NC(=O)[C@H](CCCNC(=N)N)NC(=O)[C@H](CC(C)C)NC(=O)[C@H](CC(C)C)NC(=O)[C@H](CCC(N)=O)NC(=O)[C@H](C)NC(=O)[C@H](CCC(N)=O)NC(=O)[C@@H](N)[C@@H](C)O)C(C)C)C(=O)N[C@@H](C(C)C)C(=O)N[C@@H](CC(C)C)C(=O)NCC(=O)N[C@@H]([C@@H](C)O)C(=O)N1)C(C)C)C(=O)NCC(=O)N1CCC[C@H]1C(=O)N[C@@H](C)C(=O)NCC(=O)N[C@@H](CCCNC(=N)N)C(=O)N[C@@H](CCC(N)=O)C(=O)N[C@@H](CC(=O)O)C(=O)N[C@@H](CO)C(=O)N[C@@H](C)C(=O)N1CCC[C@H]1C(=O)N[C@H](C(=O)N[C@@H](CC(=O)O)C(=O)N1CCC[C@H]1C(=O)N[C@@H](CO)C(=O)N[C@@H](CO)C(=O)N1CCC[C@H]1C(=O)N[C@@H](Cc1c[nH]cn1)C(=O)N[C@@H](CO)C(=O)N[C@@H](Cc1ccc(O)cc1)C(N)=O)C(C)C` [AM2, adrenomedullin 2] was tested, and the agonist bias [1] was “biased towards Ca^2+i mobilisation and NO production”, the “Transducer coefficient Log(τ/KA)” value ([2]; Growth, calculated from Table S2) was 5.73±0.56 and the promotion of growth ([2]; 72 h) was “could also promote growth”. The Emax ([2]; proliferation, 72 h, CCK-8, mean ± SEM) was 201.29±11.45%, the pEC50 ([2]; proliferation, 72 h, mean ± SEM of 3-6 data sets) was 5.85±0.17 and the logτ [2, 3] was 0.71±0.34. It also gave a pKA [2, 3] of 5.02±0.44.
